Experiments:
ECHCG [1] = experiment: greenhouse pre-emergence herbicidal test; assay type: in vivo, Echinocloa crus-galli; details: pre-emergence method, scale from 0 to 100
Summary of the method: (§1)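 After each species was sown separately, test compounds in water were applied at once with finely distributing nozzles. Containers were then irrigated and covered until rooting, held at species-dependent temperatures (10-25° C. or 20-35° C.), and assessed over 2 to 4 weeks on a 0-100 injury scale.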

ECHCG [2] = experiment: greenhouse post-emergence herbicidal test; assay type: in vivo, Echinocloa crus-galli; details: post-emergence method, scale from 0 to 100
Summary of the method: (§2)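 Scoring 0 (no damage) to 100 (no emergence or total destruction of aerial parts), taken over a 2 to 4 week period after post-emergence treatment at 3 to 15 cm plant height. Compounds applied as aqueous suspension or emulsion; greenhouse temperature 10-25° C. or 20-35° C. depending on species.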

SETFA = experiment: greenhouse pre-emergence herbicidal test; assay type: in vivo, Setaria faberi; details: pre-emergence method, scale from 0 to 100
Excerpt: (§3) The seeds of the test plants were sown separately for each species. For the pre-emergence treatment, the active ingredients, which had been suspended or emulsified in water, were applied directly after sowing by means of finely distributing nozzles. The containers were irrigated gently to promote germination and growth and subsequently covered with transparent plastic hoods until the plants had rooted. This cover caused uniform germination of the test plants, unless this had been impaired by the active ingredients. Depending on the species, the plants were kept at 10-25° C. or 20-35° C., respectively. The test period extended over 2 to 4 weeks. During this time, the plants were tended, and their response to the individual treatments was evaluated. Evaluation was carried out using a scale from 0 to 100. 100 means no emergence of the plants, or complete destruction of at least the aerial moieties, and 0 means no damage, or normal course of growth. […] The plants used in the greenhouse experiments were of the following species: [table]

LOLMU = experiment: greenhouse post-emergence herbicidal test; assay type: in vivo, Lolium multiflorum; details: post-emergence method, scale from 0 to 100
Excerpt: The seeds of the test plants were sown separately for each species. For the post-emergence treatment, the test plants were first grown to a height of 3 to 15 cm, depending on the plant habit, and only then treated with the active ingredients which had been suspended or emulsified in water. For this purpose, the test plants were either sown directly and grown in the same containers, or they were first grown separately as seedlings and transplanted into the test containers a few days prior to treatment. Depending on the species, the plants were kept at 10-25° C. or 20-35° C., respectively. The test period extended over 2 to 4 weeks. During this time, the plants were tended, and their response to the individual treatments was evaluated. Evaluation was carried out using a scale from 0 to 100. 100 means no emergence of the plants, or complete destruction of at least the aerial moieties, and 0 means no damage, or normal course of growth. […] The plants used in the greenhouse experiments were of the following species: [table]

APESV = experiment: greenhouse pre-emergence herbicidal test; assay type: in vivo, Apera spica-venti; details: pre-emergence method, scale from 0 to 100
Summary of the method: as §1

POLCO = experiment: greenhouse post-emergence herbicidal test; assay type: in vivo, Polygonum convolvulus; details: post-emergence method, scale from 0 to 100
Summary of the method: as §2

ALOMY = experiment: greenhouse post-emergence herbicidal test; assay type: in vivo, Alopercurus myosuroides; details: post-emergence method, application rate 1000 g/ha, scale from 0 to 100
Summary of the method: as §2

AMARE [3] = experiment: greenhouse post-emergence herbicidal test; assay type: in vivo, Amaranthus retroflexus; details: post-emergence method, scale from 0 to 100
Summary of the method: as §2

AMARE [4] = experiment: greenhouse pre-emergence herbicidal test; assay type: in vivo, Amaranthus retroflexus; details: pre-emergence method, scale from 0 to 100
Excerpt: as §3

AVEFA = experiment: greenhouse post-emergence herbicidal test; assay type: in vivo, Avena fatua; details: post-emergence method, scale from 0 to 100
Summary of the method: as §2

ABUTH = experiment: greenhouse post-emergence herbicidal test; assay type: in vivo, Abutilon theophrasti; details: post-emergence method, scale from 0 to 100
Summary of the method: as §2

## COC(=O)c1nc(C(C)C)ncc1-c1ccccc1C [example 37]
ECHCG [1]; application rate 1000 g/ha
  herbicidal activity against ECHCG: very good (a very good herbicidal activity is given at values of at least 85)
ECHCG [2]; application rate 1000 g/ha
  herbicidal activity against ECHCG: very good (a very good herbicidal activity is given at values of at least 85)
SETFA; application rate 1000 g/ha
  herbicidal activity against SETFA: very good (a very good herbicidal activity is given at values of at least 85)

## CSc1ncc(-c2cc(C)ccc2Cl)c(C(=O)O)n1 [example 86]
ECHCG [1]; application rate 1000 g/ha
  herbicidal activity against ECHCG: good (A good herbicidal activity is given at values of at least 70)
SETFA; application rate 1000 g/ha
  herbicidal activity against SETFA: good (A good herbicidal activity is given at values of at least 70)

## Cc1ccc(C)c(-c2cnc(C(C)C)nc2C(=O)O)c1 [example 34]
ECHCG [1]; application rate 500 g/ha
  herbicidal activity against ECHCG: very good (a very good herbicidal activity is given at values of at least 85)
LOLMU; application rate 500 g/ha
  herbicidal activity against LOLMU: good (A good herbicidal activity is given at values of at least 70)
ECHCG [2]; application rate 500 g/ha
  herbicidal activity against ECHCG: very good (a very good herbicidal activity is given at values of at least 85)
APESV; application rate 500 g/ha
  herbicidal activity against APESV: very good (a very good herbicidal activity is given at values of at least 85)

## Cc1ccccc1-c1cnc(C2CC2)nc1C(=O)O [example 161]
LOLMU; application rate 1000 g/ha
  herbicidal activity against LOLMU: good (A good herbicidal activity is given at values of at least 70)
POLCO; application rate 1000 g/ha
  herbicidal activity against POLCO: good (A good herbicidal activity is given at values of at least 70)
ALOMY
  herbicidal activity against ALOMY: good (A good herbicidal activity is given at values of at least 70)
AMARE [3]; application rate 1000 g/ha
  herbicidal activity against AMARE: good (A good herbicidal activity is given at values of at least 70)
APESV; application rate 1000 g/ha
  herbicidal activity against APESV: very good (a very good herbicidal activity is given at values of at least 85)

## COC(=O)c1nc(SC)ncc1-c1cc(C)ccc1Cl [example 117]
AMARE [4]; application rate 500 g/ha
  herbicidal activity against AMARE: good (A good herbicidal activity is given at values of at least 70)
ECHCG [1]; application rate 500 g/ha
  herbicidal activity against ECHCG: good (A good herbicidal activity is given at values of at least 70)

## COC(=O)CCSC(=O)c1nc(C2CC2)ncc1-c1ccccc1Cl [example 307]
LOLMU; application rate 250 g/ha
  herbicidal activity against LOLMU: very good (a very good herbicidal activity is given at values of at least 85)
AVEFA; application rate 250 g/ha
  herbicidal activity against AVEFA: very good (a very good herbicidal activity is given at values of at least 85)
ECHCG [2]; application rate 250 g/ha
  herbicidal activity against ECHCG: good (A good herbicidal activity is given at values of at least 70)
APESV; application rate 250 g/ha
  herbicidal activity against APESV: very good (a very good herbicidal activity is given at values of at least 85)

## CSc1ncc(-c2ccccc2S(C)(=O)=O)c(C(=O)O)n1 [example 114]
SETFA; application rate 2000 g/ha
  herbicidal activity against SETFA: very good (a very good herbicidal activity is given at values of at least 85)

## Cc1ccccc1-c1cnc(S(C)(=O)=O)nc1C(=O)O [example 127]
SETFA; application rate 2000 g/ha
  herbicidal activity against SETFA: good (A good herbicidal activity is given at values of at least 70)

## COC(=O)c1nc(C2CCC2)ncc1-c1ccccc1C [example 264]
AMARE [3]; application rate 1000 g/ha
  herbicidal activity against AMARE: very good (a very good herbicidal activity is given at values of at least 85)
SETFA; application rate 1000 g/ha
  herbicidal activity against SETFA: very good (a very good herbicidal activity is given at values of at least 85)
ABUTH; application rate 1000 g/ha
  herbicidal activity against ABUTH: very good (a very good herbicidal activity is given at values of at least 85)
APESV; application rate 1000 g/ha
  herbicidal activity against APESV: good (A good herbicidal activity is given at values of at least 70)

## O=C(O)c1nc(C2CCC2)ncc1-c1ccccc1Cl [example 2, 5-(2-Chlorophenyl)-2-cyclobutyl-pyrimidine-4-carboxylate]
ECHCG [2]; application rate 1000 g/ha
  herbicidal activity against ECHCG: good (A good herbicidal activity is given at values of at least 70)
SETFA; application rate 1000 g/ha
  herbicidal activity against SETFA: good (A good herbicidal activity is given at values of at least 70)
ABUTH; application rate 1000 g/ha
  herbicidal activity against ABUTH: good (A good herbicidal activity is given at values of at least 70)

## COC(=O)c1nc(C2CC2)ncc1-c1c(Cl)cccc1C(F)(F)F [example 302]
ECHCG [2]; application rate 1000 g/ha
  herbicidal activity against ECHCG: very good (a very good herbicidal activity is given at values of at least 85)
AMARE [3]; application rate 1000 g/ha
  herbicidal activity against AMARE: very good (a very good herbicidal activity is given at values of at least 85)
SETFA; application rate 1000 g/ha
  herbicidal activity against SETFA: very good (a very good herbicidal activity is given at values of at least 85)

## CS(=O)(=O)NC(=O)c1nc(C2CC2)ncc1-c1ccccc1Cl [example 286]
ECHCG [1]; application rate 500 g/ha
  herbicidal activity against ECHCG: very good (a very good herbicidal activity is given at values of at least 85)
LOLMU; application rate 500 g/ha
  herbicidal activity against LOLMU: very good (a very good herbicidal activity is given at values of at least 85)
AMARE [3]; application rate 500 g/ha
  herbicidal activity against AMARE: very good (a very good herbicidal activity is given at values of at least 85)
APESV; application rate 500 g/ha
  herbicidal activity against APESV: very good (a very good herbicidal activity is given at values of at least 85)

## CN(C)C(=O)c1nc(C2CC2)ncc1-c1ccccc1Cl [example 285]
AMARE [4]; application rate 500 g/ha
  herbicidal activity against AMARE: good (A good herbicidal activity is given at values of at least 70)
APESV; application rate 500 g/ha
  herbicidal activity against APESV: good (A good herbicidal activity is given at values of at least 70)

## CCc1ncc(-c2cc(C)ccc2C)c(C(=O)O)n1 [example 9]
AMARE [3]; application rate 1000 g/ha
  herbicidal activity against AMARE: good (A good herbicidal activity is given at values of at least 70)
SETFA; application rate 1000 g/ha
  herbicidal activity against SETFA: very good (a very good herbicidal activity is given at values of at least 85)
ABUTH; application rate 1000 g/ha
  herbicidal activity against ABUTH: very good (a very good herbicidal activity is given at values of at least 85)
APESV; application rate 1000 g/ha
  herbicidal activity against APESV: very good (a very good herbicidal activity is given at values of at least 85)

## COC(=O)c1nc(C2CC2)ncc1-c1c(Cl)cc(F)cc1Cl [example 208]
AMARE [4]; application rate 1000 g/ha
  herbicidal activity against AMARE: good (A good herbicidal activity is given at values of at least 70)
AVEFA; application rate 1000 g/ha
  herbicidal activity against AVEFA: very good (a very good herbicidal activity is given at values of at least 85)
ALOMY
  herbicidal activity against ALOMY: very good (a very good herbicidal activity is given at values of at least 85)
APESV; application rate 1000 g/ha
  herbicidal activity against APESV: very good (a very good herbicidal activity is given at values of at least 85)

## CCOc1cccc(Br)c1-c1cnc(C2CC2)nc1C(=O)O [example 303]
ECHCG [2]; application rate 1000 g/ha
  herbicidal activity against ECHCG: very good (a very good herbicidal activity is given at values of at least 85)
SETFA; application rate 1000 g/ha
  herbicidal activity against SETFA: very good (a very good herbicidal activity is given at values of at least 85)
APESV; application rate 1000 g/ha
  herbicidal activity against APESV: very good (a very good herbicidal activity is given at values of at least 85)

## CCc1ncc(-c2ccccc2Cl)c(C(=O)O)n1 [example 6]
LOLMU; application rate 500 g/ha
  herbicidal activity against LOLMU: good (A good herbicidal activity is given at values of at least 70)
POLCO; application rate 500 g/ha
  herbicidal activity against POLCO: very good (a very good herbicidal activity is given at values of at least 85)
ECHCG [2]; application rate 500 g/ha
  herbicidal activity against ECHCG: very good (a very good herbicidal activity is given at values of at least 85)
APESV; application rate 500 g/ha
  herbicidal activity against APESV: very good (a very good herbicidal activity is given at values of at least 85)

## Cc1ccccc1-c1cnc(-c2ccccc2)nc1C(=O)O [example 271]
ECHCG [2]; application rate 500 g/ha
  herbicidal activity against ECHCG: very good (a very good herbicidal activity is given at values of at least 85)
SETFA; application rate 500 g/ha
  herbicidal activity against SETFA: good (A good herbicidal activity is given at values of at least 70)
ABUTH; application rate 500 g/ha
  herbicidal activity against ABUTH: very good (a very good herbicidal activity is given at values of at least 85)

Source: patent US10420341B2, “Herbicidal phenylpyrimidines” (BASF SE, priority 2015, dated 2019)
